This test has as its system HL60 cells. Description: Anti-proliferation on HL60 cells (CellTiter-Glo, 3 days). The class given is cell-based. Particulars: Homo sapiens, HL-60, 72 h, 3 days incubation, CTG luminescence, IC50 by XLfit, read-out: HL60 cells Proliferation inhibitory activity. As for the experimental part:
HL60 cells (Cell Bank of Chinese Academy of Sciences) in the logarithmic growth phase were counted and plated evenly in a 96-well transparent bottom white plate at 20000 cells per well and 100 μL per well.
A certain amount of the compound of the present invention was weighed and diluted with DMSO to a 10 mM stock solution. The culture medium RPMI-1640 (meilunbio, MA0215) corresponding to the cells were taken, and the compound was diluted to the concentration required by the test, shaken gently and mixed evenly. 50 μL of the gradient dilution of the diluted compound was added to each well of the plated cells, and 50 μL of 0.1% DMSO was added to the control group. The plate was shaken gently, mixed evenly and incubated in a cell culture incubator for 3 days.
• 3.1 The CellTiter-Glo™ (CTG) (purchased from Promega, Cat. No. G9242) reagent was taken in advance from the −20° C. refrigerator and equilibrated to room temperature in the dark. Cell Titer-Glo buffer and Cell Titer-Glo substrate were mixed at a ratio of 1:1 to prepare a CTG detection reagent. • 3.2 The 96-well plate was taken out and inspected under a microscope for growth. • 3.3 The bottom of the 96-well plate was tagged with white paper, and then the plate was wrapped with tin foil paper, shaken at 37° C. at 300 r for 10 min and mixed evenly. • 3.4. 50 μL of CTG detection reagent was added to each well, Luminescence signal was detected using a microplate reader Biotek Synergy Hi, and the inhibition rate was calculated. IC50 values of the compounds were calculated by XLfit 5.5.0 software to evaluate the proliferation inhibitory activity on HL60 cells.
On to `COc1cccc(-c2cnc(N3CCC(CNCc4scc5c4CN(C4CCC(=O)NC4=O)C5=O)CC3)c(C(F)(F)F)c2)c1` (stereo not shown) [Compound A144], for which the IC50 is 752 nM.
The figure for `O=C1CCC(N2Cc3cc(NC(=O)CC4CCN(c5ccc(-c6cccc7ccccc67)cn5)CC4)ccc3C2=O)C(=O)N1` (stereo not shown) [Compound A35] is below 0.2 nM; for `O=C1CCC(N2Cc3cc(C(=O)NCC4CCN(c5nccc(-c6cccc7ccccc67)n5)CC4)ccc3C2=O)C(=O)N1` (stereo not shown) [Compound A12] it is 4.5 nM; for `O=C1CCC(c2coc3cc(CNCC4CCN(c5ncc(-c6cccc(Cl)c6)cc5C(F)(F)F)CC4)ccc23)C(=O)N1` (stereo not shown) [Compound A149] it is 1740 nM.
Next, `O=C1CCC(N2Cc3cc(NC(=O)CC4CCN(CC(=O)N5CCCc6ccccc65)CC4)ccc3C2=O)C(=O)N1` (stereo not shown) [Compound A3]: 7.9 nM.
Next, `O=C1CCC(N2Cc3cc(C(=O)NCC4CCN(c5cccc(-c6cccc7ccccc67)n5)CC4)ccc3C2=O)C(=O)N1` (stereo not shown) [Compound A14]: 0.9 nM; `O=C1CCC(N2Cc3cc(C(=O)NCC4CCN(c5ccc(-c6cccc7cccnc67)nc5)CC4)ccc3C2=O)C(=O)N1` (stereo not shown) [Compound A44]: 5 nM.
For `O=C1CCC(N2Cc3cc(CNCC4CCN(c5ncc(-c6cc(F)cc(Cl)c6)cc5C(F)(F)F)CC4)ccc3C2=O)C(=O)N1` (stereo not shown) [Compound A115], the IC50 was determined as 1.5 nM.
Next, `O=C1CCC(N2Cc3cc(NC(=O)CC4CCN(c5ncc(-c6ccccc6)cn5)CC4)ccc3C2=O)C(=O)N1` (stereo not shown) [Compound A51]: below 0.2 nM; `O=C1CCC(N2Cc3cc(NC(=O)CC4CCN(c5ncc(Br)cn5)CC4)ccc3C2=O)C(=O)N1` (stereo not shown) [Compound A48]: 4.1 nM; `O=C1CCC(N2Cc3cc(C(=O)NCC4CCN(c5ncc(-c6cccc(Cl)c6)cn5)CC4)ccc3C2=O)C(=O)N1` (stereo not shown) [Compound A52]: 1.4 nM.
Take `O=C1CCC(N2Cc3cc(C(=O)NCC4CCN(c5ccc(-c6cccc7ccccc67)nc5)CC4)ccc3C2=O)C(=O)N1` (stereo not shown) [Compound A36]: the IC50 stood at 0.3 nM.
Next, `O=C1CCC(N2Cc3cc(NC(=O)CC4CCN(c5nccc(-c6cccc7ccccc67)n5)CC4)ccc3C2=O)C(=O)N1` (stereo not shown) [Compound A13]: 6.4 nM; `O=C1CC[C@@H](N2Cc3cc(CNCC4(F)CCN(c5ncc(-c6cccc(Cl)c6)cc5C(F)(F)F)CC4)ccc3C2=O)C(=O)N1` [Compound A128]: 9.04 nM.
The figure for `O=C1CCC(N2Cc3cc(CNCC4CCN(c5ncc(-c6cccc(Cl)c6)cc5[N+](=O)[O-])CC4)ccc3C2=O)C(=O)N1` (stereo not shown) [Compound A78] is 3 nM; for `O=C(CN1CCC(CNC(=O)c2ccc3c(c2)CN(C2CCC(=O)NC2=O)C3=O)CC1)NCc1cccc2ccccc12` (stereo not shown) [Compound A6] it is 192 nM; for `O=C1CCC(NC(=O)c2ccc(CNCC3CCN(c4ncc(-c5cccc(Cl)c5)cc4C(F)(F)F)CC3)nc2)C(=O)N1` (stereo not shown) [Compound A157] it is 11700 nM.
Next, `Cn1nc(N2CCC(=O)NC2=O)c2ccc(CNCC3CCN(c4ncc(-c5cccc(Cl)c5)cc4C(F)(F)F)CC3)cc21` [Compound A177]: 4350 nM; `Cc1cc(Cl)cc(-c2cnc(N3CCC(CNCc4ccc5c(c4)CN(C4CCC(=O)NC4=O)C5=O)CC3)c(C(F)(F)F)c2)c1` (stereo not shown) [Compound A114]: 11 nM; `O=C1CCC(N2Cc3cc(NC(=O)CC4CCN(c5cccc(-c6cccc7ccccc67)c5)CC4)ccc3C2=O)C(=O)N1` (stereo not shown) [Compound A22]: 4 nM.
For `O=C1CCC(N2Cc3cc(NC(=O)CC4CCN(c5cnc(-c6cccc7ccccc67)nc5)CC4)ccc3C2=O)C(=O)N1` (stereo not shown) [Compound A33], the IC50 came out at 0.3 nM.
Next, `O=C1CCC(N2Cc3cc(CNCC4CCN(c5ncc(-c6cccc(Cl)c6)cc5F)CC4(F)F)ccc3C2=O)C(=O)N1` (stereo not shown) [Compound A88]: 0.8 nM; `O=C1CCC(N2Cc3cc(NC(=O)CC4CCN(c5ncc(-c6ccccc6Cl)cn5)CC4)ccc3C2=O)C(=O)N1` (stereo not shown) [Compound A54]: below 0.2 nM; `CC(C)c1cnc(N2CCC(CC(=O)Nc3ccc4c(c3)CN(C3CCC(=O)NC3=O)C4=O)CC2)nc1` (stereo not shown) [Compound A50]: 0.6 nM.
The figure for `COc1cc(Cl)cc(-c2cnc(N3CCC(CNCc4ccc5c(c4)CN(C4CCC(=O)NC4=O)C5=O)CC3)c(C(F)(F)F)c2)c1` (stereo not shown) [Compound A113] is 3 nM.
Next, `O=C1CCC(N2Cc3cc(C(=O)NCC4CCN(c5ncc(-c6ccc7ccccc7c6)cn5)CC4)ccc3C2=O)C(=O)N1` (stereo not shown) [Compound A39]: 2.6 nM; `O=C1CCC(N2Cc3cc(C(=O)NCC4CCN(c5ccc(-c6cccc7ccccc67)cn5)CC4)ccc3C2=O)C(=O)N1` (stereo not shown) [Compound A34]: below 0.2 nM; `COc1cc(CNCC2CCN(c3ncc(-c4cccc(Cl)c4)cc3C(F)(F)F)CC2)ccc1C(=O)NC1CCC(=O)NC1=O` (stereo not shown) [Compound A161]: 11200 nM.
Turning to `O=C1CCC(N2Cc3cc(C(=O)NCC4CCN(c5ncc(-c6cccc7ccccc67)o5)CC4)ccc3C2=O)C(=O)N1` (stereo not shown) [Compound A27], the IC50 is 3.7 nM.
Next, `O=C1CCC(N2Cc3cc(CNCC4CCN(c5ncc(-c6ccccn6)cc5F)CC4)ccc3C2=O)C(=O)N1` (stereo not shown) [Compound A106]: 878 nM.
Next, `O=C1CCC(N2C(=O)c3cc4c(cc3C2=O)CN(CC2CCN(c3ncc(-c5cccc(Cl)c5)cc3C(F)(F)F)CC2)C4)C(=O)N1` (stereo not shown) [Compound A138]: 1100 nM; `O=C1CCC(c2cn3cc(CNCC4CCN(c5ncc(-c6cccc(Cl)c6)cc5C(F)(F)F)CC4)ccc3n2)C(=O)N1` (stereo not shown) [Compound A148]: 8520 nM; `Cc1cc(-c2cccc(Cl)c2)cnc1N1CCC(CNCc2ccc3c(c2)CN(C2CCC(=O)NC2=O)C3=O)CC1` (stereo not shown) [Compound A76]: below 0.2 nM.
The figure for `Cc1nc2cc(CNCC3CCN(c4ncc(-c5cccc(Cl)c5)cc4C(F)(F)F)CC3)ccc2c(=O)n1C1CCC(=O)NC1=O` (stereo not shown) [Compound A152] is 7320 nM.
Turning to `CN(C)c1cc(-c2cccc(Cl)c2)cnc1N1CCC(CNCc2ccc3c(c2)CN(C2CCC(=O)NC2=O)C3=O)CC1` (stereo not shown) [Compound A79], the IC50 was below 0.2 nM.
Next, `O=C1CCC(NC(=O)c2ccc(CNCC3CCN(c4ncc(-c5cccc(Cl)c5)cc4C(F)(F)F)CC3)cc2F)C(=O)N1` (stereo not shown) [Compound A158]: 6660 nM.
Regarding `O=C1CCC(N2Cc3cc(NC(=O)CC4CCN(c5ncc(-c6ccc(Cl)cc6)cn5)CC4)ccc3C2=O)C(=O)N1` (stereo not shown) [Compound A55], the IC50 was below 0.2 nM.
The figure for `O=C1CCC(NC(=O)Cc2ccc(CNCC3CCN(c4ncc(-c5cccc(Cl)c5)cc4C(F)(F)F)CC3)cc2)C(=O)N1` (stereo not shown) [Compound A167] is 9580 nM; for `O=C1CCC(N2Cc3cc(NC(=O)CC4CCN(CC(=O)Nc5cccc6ccccc56)CC4)ccc3C2=O)C(=O)N1` (stereo not shown) [Compound A9] it is 6 nM.
Next, `O=C1CCC(n2cc(-c3ccc(CNCC4CCN(c5ncc(-c6cccc(Cl)c6)cc5C(F)(F)F)CC4)cc3)nn2)C(=O)N1` (stereo not shown) [Compound A168]: 109 nM; `Cn1nc(N2CCC(=O)NC2=O)c2cc(CNCC3CCN(c4ncc(-c5cccc(Cl)c5)cc4C(F)(F)F)CC3)ccc21` [Compound A176]: 5210 nM.
Next, `O=C1CCC(N2Cc3cc(OCCC4CCN(c5ncc(-c6cccc(Cl)c6)cc5C(F)(F)F)CC4)ccc3C2=O)C(=O)N1` (stereo not shown) [Compound A133]: 175 nM; `O=C1CCC(N2Cc3cc(NC(=O)CC4CCN(c5ccc(-c6ccc7ccccc7c6)cn5)CC4)ccc3C2=O)C(=O)N1` (stereo not shown) [Compound A41]: 0.2 nM; `O=C(CN1CCC(CC(=O)Nc2ccc3c(c2)CN(C2CCC(=O)NC2=O)C3=O)CC1)NCCc1cccc2ccccc12` (stereo not shown) [Compound A10]: 7.4 nM.
With `O=C1CCC(N2Cc3cc(NC(=O)CC4CCN(c5cnc(-c6cccc7ccccc67)s5)CC4)ccc3C2=O)C(=O)N1` (stereo not shown) [Compound A25], the IC50 turned out to be 0.3 nM.
The figure for `CN(C)c1cccc(-c2cnc(N3CCC(CNCc4ccc5c(c4)CN(C4CCC(=O)NC4=O)C5=O)CC3)c(C(F)(F)F)c2)c1` (stereo not shown) [Compound A97] is 0.4 nM; for `O=C1CC[C@H](N2Cc3cc(CNCC4CCN(c5ncc(-c6cccc(F)c6)cc5F)CC4)ccc3C2=O)C(=O)N1` [Compound A125] it is 2.48 nM.
The figure for `CN(C(=O)c1ccc(CNCC2CCN(c3ncc(-c4cccc(Cl)c4)cc3C(F)(F)F)CC2)cc1)C1CCC(=O)NC1=O` (stereo not shown) [Compound A163] is 8220 nM; for `O=C1CCC(N2Cc3cc(C(=O)NCC4CCN(c5cccc(-c6cccc7ccccc67)c5)CC4)ccc3C2=O)C(=O)N1` (stereo not shown) [Compound A21] it is 2.9 nM; for `COc1cccc(-c2cnc(N3CCC(F)(CNCc4ccc5c(c4)CN(C4CCC(=O)NC4=O)C5=O)CC3)c(C(F)(F)F)c2)c1` (stereo not shown) [Compound A121] it is 4.69 nM.
Next, `O=C1CCC(N2Cc3cc(CNCC4(F)CCN(c5ncc(-c6cccc(Cl)c6)cc5F)CC4)ccc3C2=O)C(=O)N1` (stereo not shown) [Compound A84]: 2.6 nM; `NC(=O)c1cc(-c2cccc(Cl)c2)cnc1N1CCC(CNCc2ccc3c(c2)CN(C2CCC(=O)NC2=O)C3=O)CC1` (stereo not shown) [Compound A99]: 1.2 nM.
